The values below are quoted from earlier work in patent publication US20070009938A1, “Minimalist bZIP derivatives that bind to noncanonical gene regulatory sequences” (priority 2005, published 2007).

In data set [1] the test system is AP-1 site. To be noted: previously shown, Lajmi et al. 2000.
The subject of data set [2] is CRE (ATF/CREB) site. To be noted: previously shown, Lajmi et al. 2000.

As for “18A: alanine-rich derivative of wt bZIP; 24 of the 27 basic-region residues are alanine (SEQ ID NO:5) (AAAAAAAAANAAAAAAARAAKAAAAAA; basic region 18A bZIP mutant peptide)”, the “binding to AP-1 site, DNase I footprinting” value (from here on “binding to AP-1 site”) in data set [1] was “bind”. For the same substance, in data set [2], the “binding to CRE (ATF/CREB) site, DNase I footprinting” value (“binding to CRE (ATF/CREB) site” for short) is reported as “bind”.
Regarding “4A: alanine-rich derivative of wt bZIP with four Ala substitutions in the GCN4 basic region (SEQ ID NO:3) (ARAAAARARNTAAARRSRARKLQRMKQ; basic region 4A bZIP mutant peptide)”, in data set [1], the “binding to AP-1 site” value was “bind”. The “binding to CRE (ATF/CREB) site” value in data set [2] was “bind”.
As for “11A: alanine-rich derivative of wt bZIP with eleven Ala substitutions in the basic region, also mutated in the hinge (SEQ ID NO:4) (ARAAAARARNTAAARRSRAAKAAAAAA; basic region 11A bZIP mutant peptide)”, in data set [1], the “binding to AP-1 site” value is given as “bind”. The “binding to CRE (ATF/CREB) site” value in data set [2] is “bind”.
